Data reported in patent US7192906B2, “Substituted pyrazole derivatives, production process thereof, and herbicide compositions containing the derivatives” (SDS Biotech K.K., priority 2001, dated 2007).

Tests used:
Format in all cases: in vivo
soybean (Glycine max) [1] = assay: Test Example 2 upland soil treatment, crop phytotoxicity; details: Table 5, upland soil treatment, index 0-5
In short: (§1)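 Pre-emergence soil treatment: seeds sown in upland soil in pots and covered with about 1 cm soil. Next day, a water-diluted wettable powder was sprayed evenly on the soil surface at 1 kg active ingredient per hectare. Weed control or crop injury was scored 0–5 (10% to ≥90% bands) 21 days later.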

[2] = tested on: wheat (Triticum aestivum); assay: as above; details: Table 5, upland soil treatment, index 0-5
In short: as §1

Rice (Oryza sativa) = assay: Test Example 3 paddy field treatment, crop phytotoxicity; details: paddy field treatment, transplanted rice Koshihikari, wettable powder, active ingredient 1 kg per hectare, 21st day after the dropping, index 0-5
In short: (§2)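 Scoring used a 0–5 scale of herbicidal effect or phytotoxicity, from <10% to ≥90%, taken 21 days after treatment. Treatment was 1 kg a.i./ha as diluted wettable powder dripped onto 4 cm-deep flooded pots sown with the weeds, 10 days after transplanting two-leaf Koshihikari rice.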

Stellaria media [3] = assay: Test Example 2 upland soil treatment; details: Table 5, upland soil treatment, index 0-5
In short: as §1

Setaria viridis [4] = assay: Test Example 2 upland soil treatment; details: Table 5, upland soil treatment, index 0-5
In short: as §1

Digitaria adscendens [5] = assay: Test Example 2 upland soil treatment; details: Table 5, upland soil treatment, index 0-5
In short: as §1

Chenopodium album [6] = assay: Test Example 2 upland soil treatment; details: Table 5, upland soil treatment, index 0-5
In short: as §1

Scirpus juncoides = assay: Test Example 3 paddy field treatment; details: paddy field treatment, wettable powder, active ingredient 1 kg per hectare, 21st day after the dropping, index 0-5
In short: as §2

Monochoria vaginalis = assay: Test Example 3 paddy field treatment; details: paddy field treatment, wettable powder, active ingredient 1 kg per hectare, 21st day after the dropping, index 0-5
In short: as §2

Echinochloa crusgalli = assay: Test Example 3 paddy field treatment; details: paddy field treatment, wettable powder, active ingredient 1 kg per hectare, 21st day after the dropping, index 0-5
In short: as §2

Ammannia multiflora = assay: Test Example 3 paddy field treatment; details: paddy field treatment, wettable powder, active ingredient 1 kg per hectare, 21st day after the dropping, index 0-5
In short: as §2

Stellaria media [7] = assay: Test Example 1 upland field foliage treatment; details: Table 4, upland field foliage treatment, index 0-5
In short: (§3)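 Scored 0–5 (0: under 10%, 5: 90% or more effect or phytotoxicity) on day 21 after treatment; plants sown in upland soil received a leaf-surface spray 14 days post-sowing of diluted wettable powder delivering 1 kg active ingredient/ha.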

Setaria viridis [8] = assay: Test Example 1 upland field foliage treatment; details: Table 4, upland field foliage treatment, index 0-5
In short: as §3

Digitaria adscendens [9] = assay: Test Example 1 upland field foliage treatment; details: Table 4, upland field foliage treatment, index 0-5
In short: as §3

Chenopodium album [10] = assay: Test Example 1 upland field foliage treatment; details: Table 4, upland field foliage treatment, index 0-5
In short: as §3

soybean (Glycine max) [11] = assay: Test Example 1 upland field foliage treatment, crop phytotoxicity; details: Table 4, upland field foliage treatment, index 0-5
In short: as §3

[12] = tested on: wheat (Triticum aestivum); assay: as above; details: Table 4, upland field foliage treatment, index 0-5
In short: as §3

Row | SMILES | Herbicidal activity (phytotoxicity) GM: Soybean (Glycine max) (soybean (Glycine max) [1]) | Herbicidal activity (phytotoxicity) TA: Wheat (Triticum aestivum) [2] | Herbicidal activity OS (phytotoxicity to rice) (Rice (Oryza sativa)) | Herbicidal activity SM: Stellaria media (Stellaria media [3]) | Herbicidal activity SV: Setaria viridis (Setaria viridis [4]) | Herbicidal activity DA: Digitaria adscendens (Digitaria adscendens [5]) | Herbicidal activity CA: Chenopodium album (Chenopodium album [6]) | Herbicidal activity SJ (Scirpus juncoides) | Herbicidal activity MV (Monochoria vaginalis) | Herbicidal activity EC (Echinochloa crusgalli) | Herbicidal activity AM (Ammannia multiflora) | Herbicidal activity SM: Stellaria media (Stellaria media [7]) | Herbicidal activity SV: Setaria viridis (Setaria viridis [8]) | Herbicidal activity DA: Digitaria adscendens (Digitaria adscendens [9]) | Herbicidal activity CA: Chenopodium album (Chenopodium album [10]) | Herbicidal activity (phytotoxicity) GM: Soybean (Glycine max) (soybean (Glycine max) [11]) | Herbicidal activity (phytotoxicity) TA: Wheat (Triticum aestivum) [12]
1 | CON=C(Cn1cc(C)c(-c2ccccc2)n1)C(=O)NC1CCCCC1 [Compound 24] | 0 (herbicidal effect of not less than 0% and less than 10%, or phytotoxicity of 0% or more and less than 10%) | 0 (herbicidal effect of not less than 0% and less than 10%, or phytotoxicity of 0% or more and less than 10%) | 0 (herbicidal effect of not less than 0% and less than 10%, or phytotoxicity of 0% or more and less than 10%) | 4 (herbicidal effect of not less than 70% and less than 90%, or phytotoxicity of 70% or more and less than 90%) | 4 (herbicidal effect of not less than 70% and less than 90%, or phytotoxicity of 70% or more and less than 90%) | 3 (herbicidal effect of not less than 50% and less than 70%, or phytotoxicity of 50% or more and less than 70%) | 5 (herbicidal effect of not less than 90%, or phytotoxicity of 90% or more) | 4 (herbicidal effect of not less than 70% and less than 90%, or phytotoxicity of 70% or more and less than 90%) | 5 (herbicidal effect of not less than 90%, or phytotoxicity of 90% or more) | 4 (herbicidal effect of not less than 70% and less than 90%, or phytotoxicity of 70% or more and less than 90%) | 4 (herbicidal effect of not less than 70% and less than 90%, or phytotoxicity of 70% or more and less than 90%) | 4 (herbicidal effect of not less than 70% and less than 90%, or phytotoxicity of 70% or more and less than 90%) | 4 (herbicidal effect of not less than 70% and less than 90%, or phytotoxicity of 70% or more and less than 90%) | 3 (herbicidal effect of not less than 50% and less than 70%, or phytotoxicity of 50% or more and less than 70%) | 4 (herbicidal effect of not less than 70% and less than 90%, or phytotoxicity of 70% or more and less than 90%) | 0 (herbicidal effect of not less than 0% and less than 10%, or phytotoxicity of 0% or more and less than 10%) | 0 (herbicidal effect of not less than 0% and less than 10%, or phytotoxicity of 0% or more and less than 10%)
2 | C=CCNC(=O)C(Cn1cc(C)c(-c2ccccc2)n1)=NOC [Compound 26] | 0 (herbicidal effect of not less than 0% and less than 10%, or phytotoxicity of 0% or more and less than 10%) | 0 (herbicidal effect of not less than 0% and less than 10%, or phytotoxicity of 0% or more and less than 10%) | 0 (herbicidal effect of not less than 0% and less than 10%, or phytotoxicity of 0% or more and less than 10%) | 5 (herbicidal effect of not less than 90%, or phytotoxicity of 90% or more) | 4 (herbicidal effect of not less than 70% and less than 90%, or phytotoxicity of 70% or more and less than 90%) | 5 (herbicidal effect of not less than 90%, or phytotoxicity of 90% or more) | 5 (herbicidal effect of not less than 90%, or phytotoxicity of 90% or more) | 5 (herbicidal effect of not less than 90%, or phytotoxicity of 90% or more) | 5 (herbicidal effect of not less than 90%, or phytotoxicity of 90% or more) | 5 (herbicidal effect of not less than 90%, or phytotoxicity of 90% or more) | 5 (herbicidal effect of not less than 90%, or phytotoxicity of 90% or more) | 5 (herbicidal effect of not less than 90%, or phytotoxicity of 90% or more) | 4 (herbicidal effect of not less than 70% and less than 90%, or phytotoxicity of 70% or more and less than 90%) | 5 (herbicidal effect of not less than 90%, or phytotoxicity of 90% or more) | 5 (herbicidal effect of not less than 90%, or phytotoxicity of 90% or more) | 0 (herbicidal effect of not less than 0% and less than 10%, or phytotoxicity of 0% or more and less than 10%) | 0 (herbicidal effect of not less than 0% and less than 10%, or phytotoxicity of 0% or more and less than 10%)
3 | C#CCNC(=O)C(Cn1cc(C)c(-c2ccccc2)n1)=NOC [Compound 27] | 1 (herbicidal effect of not less than 10% and less than 30%, or phytotoxicity of 10% or more and less than 30%) | 0 (herbicidal effect of not less than 0% and less than 10%, or phytotoxicity of 0% or more and less than 10%) | 0 (herbicidal effect of not less than 0% and less than 10%, or phytotoxicity of 0% or more and less than 10%) | 5 (herbicidal effect of not less than 90%, or phytotoxicity of 90% or more) | 5 (herbicidal effect of not less than 90%, or phytotoxicity of 90% or more) | 5 (herbicidal effect of not less than 90%, or phytotoxicity of 90% or more) | 5 (herbicidal effect of not less than 90%, or phytotoxicity of 90% or more) | 5 (herbicidal effect of not less than 90%, or phytotoxicity of 90% or more) | 5 (herbicidal effect of not less than 90%, or phytotoxicity of 90% or more) | 5 (herbicidal effect of not less than 90%, or phytotoxicity of 90% or more) | 5 (herbicidal effect of not less than 90%, or phytotoxicity of 90% or more) | 5 (herbicidal effect of not less than 90%, or phytotoxicity of 90% or more) | 5 (herbicidal effect of not less than 90%, or phytotoxicity of 90% or more) | 5 (herbicidal effect of not less than 90%, or phytotoxicity of 90% or more) | 5 (herbicidal effect of not less than 90%, or phytotoxicity of 90% or more) | 0 (herbicidal effect of not less than 0% and less than 10%, or phytotoxicity of 0% or more and less than 10%) | 0 (herbicidal effect of not less than 0% and less than 10%, or phytotoxicity of 0% or more and less than 10%)
4 | CON=C(Cn1cc(C)c(-c2ccccc2)n1)C(=O)NCc1ccccc1 [Compound 30] | 0 (herbicidal effect of not less than 0% and less than 10%, or phytotoxicity of 0% or more and less than 10%) | 0 (herbicidal effect of not less than 0% and less than 10%, or phytotoxicity of 0% or more and less than 10%) | 0 (herbicidal effect of not less than 0% and less than 10%, or phytotoxicity of 0% or more and less than 10%) | 3 (herbicidal effect of not less than 50% and less than 70%, or phytotoxicity of 50% or more and less than 70%) | 4 (herbicidal effect of not less than 70% and less than 90%, or phytotoxicity of 70% or more and less than 90%) | 3 (herbicidal effect of not less than 50% and less than 70%, or phytotoxicity of 50% or more and less than 70%) | 4 (herbicidal effect of not less than 70% and less than 90%, or phytotoxicity of 70% or more and less than 90%) | 4 (herbicidal effect of not less than 70% and less than 90%, or phytotoxicity of 70% or more and less than 90%) | 5 (herbicidal effect of not less than 90%, or phytotoxicity of 90% or more) | 4 (herbicidal effect of not less than 70% and less than 90%, or phytotoxicity of 70% or more and less than 90%) | 4 (herbicidal effect of not less than 70% and less than 90%, or phytotoxicity of 70% or more and less than 90%) | 3 (herbicidal effect of not less than 50% and less than 70%, or phytotoxicity of 50% or more and less than 70%) | 3 (herbicidal effect of not less than 50% and less than 70%, or phytotoxicity of 50% or more and less than 70%) | 4 (herbicidal effect of not less than 70% and less than 90%, or phytotoxicity of 70% or more and less than 90%) | 4 (herbicidal effect of not less than 70% and less than 90%, or phytotoxicity of 70% or more and less than 90%) | 0 (herbicidal effect of not less than 0% and less than 10%, or phytotoxicity of 0% or more and less than 10%) | 0 (herbicidal effect of not less than 0% and less than 10%, or phytotoxicity of 0% or more and less than 10%)
